Test results as given in PMC5066224, “A Novel Resveratrol Based Tubulin Inhibitor Induces Mitotic Arrest and Activates Apoptosis in Cancer Cells” (Scientific Reports, 2016).

Legend:
[1] = tested on: several cancer cell lines; assay: Cytotoxicity in cancer cell lines ex vivo (summary); assay type: cell-based
Experimental: The effect of SS28 on viability of CEM, Reh, Nalm6, SUDHL8, Molt4, A549, HeLa 293T, mouse embryonic fibroblast (MEF) and PBMC was determined by trypan blue dye exclusion assay as described previously. Briefly, cells (0.75 × 10^5 cells/ml) were treated with increasing concentrations of SS28 (1, 5, 10 and 20, μM) for 48 and 72 h. DMSO treated cells were used as the vehicle control. Cells were harvested and subjected to trypan blue assay. Data from a minimum of three independent experiments is presented as a histogram with error bars.

purified Tubulin [2] = assay: Circular dichroism of Tubulin with SS28; assay type: binding; settings: Tubulin 1 μM in PEM buffer, 200-260 nm, 4 °C
Experimental: Purified Tubulin (1 μM) was resuspended in PEM buffer (80 mM PIPES (pH 6.9), 2 mM MgCl2, 0.5 mM EGTA, 1.0 mM GTP and 5% glycerol) and CD spectrum was recorded at a wavelength of 200 to 260 nm (4 °C) on a JASCO J-810 spectropolarimeter. 3 cycles were acquired for each sample at a scan speed of 100 nm/sec. Increasing concentration of SS28 (500 pM, 1, 10, 100 and 1000 nM) was incubated with Tubulin (1 μM) in PEM buffer and the spectrum was recorded. Spectral measurements were taken for buffer alone and buffer containing DMSO were subtracted from experimental data. The molar ellipticity was calculated using Spectra Manager software and plotted as a function of wavelength.

CEM cells [3] = assay: Annexin V-FITC/PI double-staining assay; assay type: cell-based, Human; settings: 48 h; for cells in early apoptotic stage: Annexin positive; for cells in late apoptosis: Annexin/PI positive
Experimental: When cells undergo apoptosis, the integrity of the cell membrane is disrupted and phosphatidyl serine is exposed. Annexin V conjugated with FITC (apoptosis detection kit Santacruz, USA) has a selective affinity for phosphatidyl serine, based on which early and late apoptotic cells can be detected.
CEM cells (1 × 10^5 cells/ml) were treated with SS28 (5 and 10 μM) for 48 h. Cells were then harvested, washed with cold PBS and used for annexin-PI double-staining assay. Samples were resuspended in 1x binding buffer and incubated with Annexin V-FITC ([…]) and PI (0.05 mg/ml) and analyzed by flow cytometry (FACS calibur) using CellQuest pro software at an excitation with 488 nm laser and emission at 530 nm[55]. A minimum of 10,000 cells were acquired for each sample and illustrated as dot plot using Flowing software.

EAC cells tumor = assay: Antitumor activity in EAC solid tumor mouse model; assay type: in vivo; settings: EAC tumor BALB/c mice, 15 mg/kg oral, nine doses every alternate day from 12th day, up to 28 days
Experimental: EAC cells were collected from donor mice (Swiss albino) and resuspended in sterile saline. A fixed number of viable cells were injected into the peritoneal cavity of each recipient mouse and were allowed to multiply. The cells were withdrawn, diluted in saline and injected (15 × 10^5 cells/animal) into the right thigh tissue of experimental animals for developing solid tumor.
A total number of 30 BALB/c mice were divided into three batches and were used for the present study. EAC cells (15 × 10^5 cells/animal) were injected into right thigh for the development of solid tumor as described previously. Among the 10 animals in each batch, 5 animals served as tumor control and the rest 5 animals received SS28 treatment (15 mg/kg b.wt.) by oral administration using gastric gavage. The dose used was selected based on preliminary studies. The first dose was given after 12th day of tumor development (9 doses over a period of 3 weeks). The diameter of developing tumor was measured using vernier calipers at alternative days for entire life span of tumor animal and tumor volume was calculated using the formula V = 0.5 × a × b^2, where “a” and “b” indicates the major and minor diameter, respectively.

CEM cells [4] = assay: Immunoblotting of cell cycle and apoptotic proteins; assay type: cell-based, Human; settings: 5 μM, 24, 48 and 72 h
Experimental: Cell lysate was prepared after treating with SS28 (5 μM for 24, 48 and 72 h) from CEM and A549 cell lines. In brief, cells were harvested, washed with PBS, resuspended in lysis buffer (RIPA, 25 mM Tris (pH 7.6), 150 mM NaCl, 1% NP-40, 1% sodium deoxycholate and 0.1% SDS) containing protease inhibitors. The protein lysate was cleared by centrifugation (14,000 rpm, for 15 min). The protein concentration in the supernatant was determined using the Bradford’s assay.
For western blot analysis, ~40 μg proteins were resolved over 8–10% SDS–polyacrylamide gel[60][61][62]. Following gel electrophoresis, proteins were transferred to PVDF membrane (Millipore, USAQ9). The primary antibodies used were against Caspase 3, Caspase 9, p73, p53, KU70, KU80, Cyclin B1, CDK6, PARP1 and Actin (Santa Cruz Biotechnology, USA). The membrane was incubated with appropriate HRP-conjugated secondary antibody (2 h at 4° C). The blots were developed using chemiluminescent solution (Immobilon^TM western, Millipore) and scanned by gel documentation system (LAS 3000, FUJI, Japan). Blots were stripped subsequently as per standard protocols and reprobed with anti β-Actin antibody.

CEM cells [5] = assay: Cell cycle phase distribution by flow cytometry; assay type: cell-based, Human; settings: 2 μM, after 12 h
Experimental: Cell cycle analysis by flow cytometry was performed as previously described. Briefly, 75,000 cells/ml (A549) were seeded in 6 well plates and grown in serum free medium for 18 h. After synchronisation, the cells were treated with 5 μM of SS28 (6, 12, 18, 24 and 30 h) and cells were processed as described before. Similarly, CEM cells (75,000 cells/ml) were treated with SS28 (2 μM) and harvested (6, 12, 18, 24 and 30 h) and processed. Following fixation, cells were resuspended in PBS and stained with propidium iodide and evaluated in a flow cytometer (FACS Calibur, Becton Dickinson) using Cell Quest Pro software using excitation 488 nm laser and emission at 560/570 nm. A minimum of 10,000 cells were acquired per sample and histograms were analysed using WinMDI 2.8 software.

purified Tubulin [6] = assay: Fluorescence binding study, double reciprocal plot; settings: double reciprocal plot of fluorescence data, 1:1 binding, 30 °C, ± SEM; read-out: dissociation constant (Kd)
Experimental: Fluorescence spectral measurements were performed using Infinite M200 PRO microplate reader (Tecan Group Ltd., Switzerland). Briefly, SS28 (10 μM) was preincubated with increasing concentration of Tubulin (10, 25, 50, 100, 500 and 1000 nM) at 30 °C for 30 min. SS28 Tubulin complex was then scanned for the emission spectra from 345 to 545 nm at 315 nm excitation range. Resulting fluorescence intensity was plotted as the function of wavelength.
The dissociation constant (Kd) was determined using double reciprocal plot of change in fluorescence of SS28 (1/Δ(F0-F)) as a function of protein concentration by the method of Benesi and Hildebrand assuming a 1:1 binding of SS28 to Tubulin[48]. The spectral measurements were recorded three times and SEM was calculated.

COc1cc(/C=C/c2ccc(C)cc2)cc(OC)c1OC [SS28, (E)-1,2,3-trimethoxy-5-(4-methylstyryl)benzene]
IC50 [1]: 3000 to 5000 nM | concentration from which a shift in the CD spectrum of Tubulin was seen (purified Tubulin [2]): ≥ 500 pM | cells in early apoptotic stage (CEM cells [3]; 5 μM): 28.2% | cells in late apoptosis (CEM cells [3]; 5 μM): 39.8% | cells in early apoptotic stage (CEM cells [3]; 10 μM): 32.9% | cells in late apoptosis (CEM cells [3]; 10 μM): 46.9% | necrosis (CEM cells [3]; 5 and 10 μM): did not observe any cells undergoing necrosis | tumor progression (tumor volume) (EAC cells tumor): no further tumor progression | Caspase 3 (CEM cells [4]): showed activation | Caspase 9 (CEM cells [4]): increase in the cleaved Caspase 9 level | PARP1 (CEM cells [4]): activation of PARP1 | expression level of Cdk6 (CEM cells [4]): increased at 24 h followed by a decrease at 48 and 72 h | expression levels of p53 (CEM cells [4]): upregulation of p53 at 24 h time point followed by a decrease in the later time points | level of Cyclin B1 (CEM cells [4]): increased at 48 h time point in CEM cells followed by a decrease at 72 h | cell cycle distribution (CEM cells [5]): distinct G2/M arrest | Kd (purified Tubulin [6]): 414 ± 110 nM
